These compounds were tested against T1, HLA-DR1 (DRB1*0101) (Homo sapiens, UniProt P01903+P01911, A100R/D57E/F55L/F60I/F76Y/I96L/L162R/M171V/P40L/Q125E/R42F/V115G/Y59C) (assay: biochemical).
T1 construct: the extracellular portion of HLA-DR1 was produced by expression of isolated subunits in Escherichia coli inclusion bodies; made in house
Assay type: binding

SMILES | IC50 [nM]
CC[C@H](C)[C@H](NC(=O)[C@@H](NC(=O)[C@H](CC(N)=O)NC(=O)[C@H](CCCNC(=N)N)NC(=O)[C@H](Cc1c[nH]cn1)NC(=O)[C@H](CCCNC(=N)N)NC(=O)[C@@H](NC(=O)[C@H](Cc1ccc(O)cc1)NC(=O)[C@H](CCC(=O)O)NC(=O)[C@H](C)NC(=O)[C@H](CC(C)C)NC(=O)[C@@H](NC(=O)[C@H](CC(C)C)NC(=O)[C@H](CCCCN)NC(=O)[C@H](Cc1ccccc1)NC(=O)[C@H](CO)NC(=O)[C@H](Cc1ccc(O)cc1)NC(=O)[C@H](CCCCN)NC(=O)[C@H](CC(N)=O)NC(=O)[C@H](Cc1ccc(O)cc1)NC(=O)[C@@H](N)CC(C)C)[C@@H](C)CC)[C@@H](C)CC)[C@@H](C)O)C(=O)O [Peptide 321] | 185 ± 50
CC[C@H](C)[C@H](NC(=O)[C@H](CCSC)NC(=O)[C@H](Cc1ccc(O)cc1)NC(=O)[C@H](Cc1ccccc1)NC(=O)[C@H](CCC(N)=O)NC(=O)[C@@H](NC(=O)CNC(=O)[C@@H](NC(=O)CN)[C@@H](C)O)C(C)C)C(=O)N[C@H](C(=O)N[C@H](C(=O)NCC(=O)N[C@H](C(=O)N[C@H](C(=O)N[C@H](C(=O)N[C@@H](CC(C)C)C(=O)N[C@@H](C)C(=O)N[C@@H](C)C(=O)N[C@@H](CC(C)C)C(=O)N[C@@H](Cc1ccccc1)C(=O)N[C@@H](CCSC)C(=O)O)[C@@H](C)CC)[C@@H](C)CC)C(C)C)[C@@H](C)CC)C(C)C [Peptide 312] | 620 ± 110
CC(C)C[C@H](NC(=O)[C@H](Cc1ccc(O)cc1)NC(=O)[C@H](CCCNC(=N)N)NC(=O)CNC(=O)[C@H](CCC(=O)O)NC(=O)[C@H](CCCCN)NC(=O)[C@@H](NC(=O)[C@@H](N)CC(N)=O)[C@@H](C)O)C(=O)N[C@H](C(=O)N[C@@H](CC(C)C)C(=O)N[C@@H](CCCCN)C(=O)N[C@@H](C)C(=O)N[C@H](C(=O)N[C@@H](CCCCN)C(=O)N[C@H](C(=O)N[C@@H](CS)C(=O)N[C@@H](CC(=O)O)C(=O)N[C@H](C(=O)N[C@@H](CCCNC(=N)N)C(=O)N[C@H](C(=O)N[C@H](C(=O)O)C(C)C)[C@@H](C)O)C(C)C)C(C)C)C(C)C)C(C)C [Peptide 301] | 190 ± 16
CC[C@H](C)[C@H](NC(=O)[C@H](C)NC(=O)[C@H](CCCNC(=N)N)NC(=O)[C@@H](NC(=O)[C@@H](NC(=O)[C@@H](NC(=O)[C@H](Cc1ccccc1)NC(=O)[C@H](Cc1c[nH]c2ccccc12)NC(=O)[C@H](Cc1ccccc1)NC(=O)[C@H](CO)NC(=O)[C@H](CC(N)=O)NC(=O)[C@@H]1CCCN1C(=O)[C@@H](N)CCCNC(=N)N)C(C)C)C(C)C)C(C)C)C(=O)N[C@@H](C)C(=O)N[C@@H](CO)C(=O)N[C@@H](CCSC)C(=O)N[C@H](C(=O)N[C@@H](CCSC)C(=O)N[C@@H](Cc1ccc(O)cc1)C(=O)N[C@@H](CC(C)C)C(=O)N[C@H](C(=O)O)C(C)C)[C@@H](C)CC [Peptide 304] | 4000
CC[C@H](C)[C@H](NC(=O)[C@H](C)NC(=O)[C@H](CC(C)C)NC(=O)[C@H](CO)NC(=O)[C@H](CC(N)=O)NC(=O)[C@H](CC(C)C)NC(=O)[C@H](Cc1ccccc1)NC(=O)[C@H](CCCNC(=N)N)NC(=O)[C@H](CCSC)NC(=O)[C@H](CC(=O)O)NC(=O)[C@H](Cc1ccccc1)NC(=O)[C@H](CCC(N)=O)NC(=O)CNC(=O)[C@@H](NC(=O)[C@@H](N)Cc1ccc(O)cc1)[C@@H](C)CC)C(=O)N[C@@H](Cc1c[nH]cn1)C(=O)N[C@@H](CCC(=O)O)C(=O)N[C@@H](CCCCN)C(=O)N[C@@H](Cc1ccccc1)C(=O)N[C@@H](CC(=O)O)C(=O)N[C@@H](C)C(=O)O [Peptide 314] | 4 ± 1
CC[C@H](C)[C@H](NC(=O)[C@H](Cc1ccc(O)cc1)NC(=O)CNC(=O)[C@H](C)NC(=O)[C@H](CC(C)C)NC(=O)[C@H](CCC(N)=O)NC(=O)[C@H](Cc1ccc(O)cc1)NC(=O)[C@H](Cc1ccc(O)cc1)NC(=O)[C@@H](NC(=O)[C@@H](NC(=O)[C@H](CC(C)C)NC(=O)[C@H](Cc1c[nH]cn1)NC(=O)[C@@H](NC(=O)[C@H](C)N)C(C)C)[C@@H](C)CC)[C@@H](C)CC)C(=O)N[C@@H](CC(C)C)C(=O)N[C@H](C(=O)N[C@H](C(=O)N[C@@H](CC(C)C)C(=O)NCC(=O)N[C@@H](CC(C)C)C(=O)NCC(=O)O)C(C)C)[C@@H](C)O [Peptide 323] | 2170

From PMC2014795 (PLoS Pathogens, 2007)
